Data taken from ChEMBL document CHEMBL4813973, “Discovery of novel N-benzylbenzamide derivatives as tubulin polymerization inhibitors with potent antitumor activities” (Eur J Med Chem, 2021).
The source made the active and inactive calls. The rule behind the calls is not given here.

Experiments:
[1] = Aqueous solubility of the compound in phosphate buffer at pH 7.4 by HPLC-UV analysis; type: physicochemical
[2] = Aqueous solubility of the compound in aqueous HCl at pH 2 by HPLC-UV analysis; type: physicochemical
[3] = Inhibition of pig brain tubulin polymerisation incubated for 30 mins and measured every 2 mins for 60 mins by spectrophotometric method; type: tissue-based, Sus scrofa
[4] = Acute toxicity in ICR mouse assessed as animal survival at 327.7 mg/kg, iv measured for 14 days; type: organism-based; conditions: in vivo, time 14 day
[5] = Acute toxicity in ICR mouse assessed as animal survival at 409.6 mg/kg, iv measured for 14 days; type: organism-based; conditions: in vivo, time 14 day
[6] = Acute toxicity in ICR mouse assessed as animal survival at 512 mg/kg, iv measured for 14 days; type: organism-based; conditions: in vivo, time 14 day
[7] = Acute toxicity in ICR mouse assessed as animal survival at 640 mg/kg, iv measured for 14 days; type: organism-based; conditions: in vivo, time 14 day
[8] = Acute toxicity in ICR mouse assessed as animal survival at 800 mg/kg, iv measured for 14 days; type: organism-based; conditions: in vivo, time 14 day
[9] = Acute toxicity in iv dosed ICR mouse; type: organism-based; conditions: in vivo
[10] = test system: H22; test: Antitumor activity against […] xenografted in ICR mouse assessed as reduction of tumor weight at 20 mg/kg/day, iv for 21 days; type: functional; conditions: 504 h, time 21 day
[11] = Toxicity in ICR mouse xenografted with […] cells assessed as effect on body weight at 20 mg/kg/day, iv for 21 days; type: organism-based; conditions: in vivo, 504 h, time 21 day
[12] = Toxicity in ICR mouse xenografted with […] cells assessed as effect on heart morphological changes at 20 mg/kg/day, iv for 21 days by H and E staining based assay; type: organism-based; conditions: in vivo, 504 h, time 21 day
[13] = Toxicity in ICR mouse xenografted with […] cells assessed as effect on liver morphological changes at 20 mg/kg/day, iv for 21 days by H and E staining based assay; type: organism-based; conditions: in vivo, 504 h, time 21 day
[14] = Toxicity in ICR mouse xenografted with […] cells assessed as effect on spleen morphological changes at 20 mg/kg/day, iv for 21 days by H and E staining based assay; type: organism-based; conditions: in vivo, 504 h, time 21 day
[15] = Toxicity in ICR mouse xenografted with […] cells assessed as effect on lungs morphological changes at 20 mg/kg/day, iv for 21 days by H and E staining based assay; type: organism-based; conditions: in vivo, 504 h, time 21 day
[16] = Toxicity in ICR mouse xenografted with […] cells assessed as effect on kidney morphological changes at 20 mg/kg/day, iv for 21 days by H and E staining based assay; type: organism-based; conditions: in vivo, 504 h, time 21 day
[17] = test system: H22; test: Antitumor activity against […] xenografted in ICR mouse assessed as reduction in tumor growth at 20 mg/kg/day, iv for 21 days; type: functional, organism-based; conditions: time 21.0 day
[18] = test system: Bel-7402; test: Antiproliferative activity against human Bel-7402 cells assessed as reduction in cell viability incubated for 72 hrs by MTT assay; type: functional, cell-based; conditions: bel-7402
[19] = test system: Bel-7402; test: Antiproliferative activity against ADR-resistant human Bel-7402 cells assessed as reduction in cell viability incubated for 72 hrs by MTT assay; type: functional, cell-based; conditions: bel-7402
[20] = test system: K562/VCR; test: Antiproliferative activity against VCR resistant human K562/VCR cells assessed as reduction in cell viability incubated for 72 hrs by MTT assay; type: functional, cell-based; conditions: k562/vcr
[21] = test system: H22; test: Antitumor activity against […] xenografted in ICR mouse assessed as reduction in tumor weight at 6 mg/kg, iv dosed every other day for 21 days; type: functional; conditions: 504 h, time 21 day
[22] = test system: K562
Description: Antiproliferative activity against human K562 cells assessed as reduction in cell viability incubated for 72 hrs by MTT assay

## COc1ccc(CNC(=O)c2cc(F)ccc2N2CCOCC2)cc1OP(=O)([O-])[O-].[Na+].[Na+]
[1]
  solubility: > 1000 µg/mL
[2]
  solubility: > 1000 µg/mL
[3]
  IC50: 6.18 µM
[4]
  survival at 336 h: 90%
[5]
  survival at 336 h: 80%
[6]
  survival at 336 h: 70%
[7]
  survival at 336 h: 50%
[8]
  survival at 336 h: 20%
[9]
  LD50: 600 mg/kg
[10]
  inhibition in vivo at 20 mg/kg/day: 71.4%
[11]
  Activity: Non-Toxic
[12]
  Activity: Non-Toxic
[13]
  Activity: Non-Toxic
[14]
  Activity: Non-Toxic
[15]
  Activity: Non-Toxic
[16]
  Activity: Non-Toxic
[17]
  Activity: Active

## CC(=O)O[C@H]1C(=O)[C@@]2(C)[C@H]([C@H](OC(=O)c3ccccc3)[C@]3(O)C[C@H](OC(=O)[C@H](O)[C@@H](NC(=O)c4ccccc4)c4ccccc4)C(C)=C1C3(C)C)[C@]1(OC(C)=O)CO[C@@H]1C[C@@H]2O [PACLITAXEL]
[18]
  IC50: Not Active
[19]
  IC50: Not Active
[20]
  IC50: Not Active
[21]
  inhibition in vivo at 6 mg/kg: 72.7%
[22]
  IC50: Not Active
